A word on the pEC50: it is the EC50 on a negative log10 scale, so that one unit is a factor of ten. A high value points to a small EC50.

pEC50: −log10 of the molar value. Entries after “also recorded” stand apart in the source; their conditions may differ.

Data set [1] deals with whole human blood. As to the kind of experiment: IL-6 cytokine expression in stimulated whole human blood (ELISA). The format is cell-based. Here is the method: (§1) This example describes the general procedure used to assess the level of cytokine IL-6 and IL-12p40 expressions upon stimuli of whole human blood with small molecules or small molecules in liposomal formulations F1 and F2. 10 mM DMSO solutions of the small molecules were diluted in RPMI media (RPMI-1640, Sigma Aldrich) with 1% penicillin/streptomycin (p/s). […], of each dilution was transferred to Nunc™ 96-Well Polystyrene Conical Bottom MicroWell™ Plates in duplicates. Blood was drawn from two human donors, diluted in RPMI with 1% p/s and added to each well to reach final concentrations of 10 μM, 1 μM, and 0.1 μM of the small molecules. The plates were incubated at 37° C. in a cell incubator for 24h. The plates were then spun down in a plate centrifuge with 3200 revolutions per minute (rpm) for 10 min before 50 uL of the supernatant was transferred to new 96-well plates. The supernatant samples were subsequently stored at −80° C. until the day of cytokine measurements.
(§2) The level of cytokine expression was measured using either an IL-6 ELISA Kit (RnDSystems, cat #DY206) for IL-6, or an IL-12p40 ELISA Kit (RnDSystems, cat #DY1240) according to the manufacturer's protocols. This general procedure was used to generate the examples 24-33.
Background: An ELISA detects its analyte on a solid surface through an enzyme-linked reagent.

In data set [2] the test system is whole human blood. As to the kind of experiment: IL-12p40 cytokine expression in stimulated whole human blood (ELISA). The data set is classed as cell-based. Here is the method:
as §1, §2

Data set [3] can be described thus: Remote loading efficiency of small molecules into liposomes (PD-10 size exclusion, HPLC). The format is physicochemical. As to the method: A solution of the small molecule (modified TLR agonist) was lyophilized in a vial equipped with a magnetic stir bar over night to form a fluffy white powder. This powder was added either formulation F1 or F2 to the wanted drug/lipid ratio. The resulting mixture was stirred at 55° C. or 41° C. for formulation F1 and F2 respectively for 3h, then allowed to cool to rt before the solutions were refrigerated and stored at 4° C.
Remote loading efficiency was determined at 1 h and 3 h by taking out 100 μL of the mixture and applying this and 900 μL buffer (25 mM HEPES, 10 vol % sucrose buffer, pH 7.4) to a PD-10 column size exclusion column. Following, 10×1 mL fractions were collected, and the small molecule compound concentrations in the loading mixture and in the liposome containing fractions were determined on analytical HPLC. Loading efficiency was calculated as percentage of molecules found in liposome containing fractions out of the applied amount. The general procedure for the small molecule remote loading is visualized in FIG. 3. The general concept of remote loading imidazoquinolines in liposomes that are dialyzed against HEPES is visualized in FIG. 4.
(In gel filtration, larger molecules generally elute earlier.)

A further data set concerns RAW-Blue cells. The data set can be described thus: NF-κB induction in RAW-Blue reporter cells (RAW 264.7 macrophages, SEAP). The note with it: for pEC50: RAW-Blue, sigmoidal 4PL fitting, 24 h. The format is cell-based. The text has this: This example describes the general procedure used to assess the compounds' potency to induce NF-κB expression in RAW 264.7 macrophages cells that stably express secreted embryonic alkaline phosphatase (SEAP) upon induction of NF-κB. RAW-Blue™ reporter cells are commonly used for quantifying TLR7/8 agonist potencies in reporter cell assays. Conversely, we used RAW-Blue™ cells to evaluate the potencies of the synthesized derivatives, as previously reported^1. ^1 Ryu et al, J. Am. Chem. Soc. (2014), 136, 10823-10825
RAW 264.7 assays were carried out using RAW-Blue™ cells and QUANTI-Blue™ detection solution (Invivogen, Toulouse, France, at. #raw-sp and rep-qbs respectively). The assays carried out according to the protocol from Invivogen. RAW 264.7 macrophages were cultured in DMEM high glucose (4.5 g/L) supplemented with 10% (v/v) FBS, 1% (v/v) P/S, and Normocin™ (100 μg/ml). On the day of the study, the cells were seeded in a 96-well plate (ThermoFisher Scientific, Roskilde, Denmark) with 20 μL TLR7/8 agonist solutions per well at varying concentrations by adding 180 μL cell suspension, made by suspending cells to 0.55×10^6 cells per mL in the prepared cell medium added Zeocin™ (200 μg/ml), leading to a final concentration of 100×10^3 cells per well in triplicates. Cells were incubated with the TLR7/8 agonists, diluted from 10 mM DMSO stocks in PBS, at 37° C. with 5% CO2 for 24 h for SEAP production. 50 μL SEAP containing cell supernatant from each well was added 150 μL QUANTI-Blue™ detection solution and was incubated at 37° C. for 3-6 h. The resulting response was quantified spectrophotometrically at 640 nm and was normalized to the signal from a blank sample (DMSO dilution) run in parallel.
Half maximal effective concentration (EC50) values were determined from sigmoidal 4PL fittings from the resulting dose-response curves in GraphPad Prism.

Where [4] appears, read: free small molecule, 10, 1, 0.1 μM, 24 h, two donors.
[5] abbreviates: formulation F1, HEPES, drug/lipid ratio 0.10, 1 h.
[6] abbreviates: formulation F1, HEPES, drug/lipid ratio 0.10, 3 h.
Setting [7] is: formulation F2, HEPES, drug/lipid ratio 0.10, 1 h.
The mark [8] stands for this setting: formulation F2, HEPES, drug/lipid ratio 0.10, 3 h.
Setting [9] is: remote loaded in formulation F1, HEPES, drug/lipid ratio 0.1.
Setting [10] is: remote loaded in formulation F2, HEPES, drug/lipid ratio 0.1.

Turning to `CCOCc1nc2c(N)nc3ccccc3c2n1CCNC(=O)[C@@H](N)CC(C)C` [MK091, (S)-2-amino-N-(2-(4-amino-2-(ethoxymethyl)-1H-imidazo[4,5-c]quinolin-1-yl)ethyl)-4-methylpentanamide], the “Expression of IL-6 upon stimulation of whole human blood” value with whole human blood [1] (setting [4]) is reported as “induced expression of IL-6 at 10 μM in donor 2”. In addition, the “Expression of IL-12p40 upon stimulation of whole human blood” value in the data set with whole human blood [2] (setting [4]) is given as “induced expression of IL-12p40 at 10 μM in donor 2”.
As to `CCOCc1nc2c(N)nc3ccccc3c2n1CCNC(=O)CN` [MK087, 2-amino-N-(2-(4-amino-2-(ethoxymethyl)-1H-imidazo[4,5-c]quinolin-1-yl)ethyl)acetamide], the entries for the “Remote loading efficiency 1 h (%)” value in data set [3] (setting [5]) and in data set [3] (setting [7]) were 72% and 52%, respectively. Besides, the “Remote loading efficiency 3 h (%)” value is 73% in data set [3] (setting [6]) and 60% in data set [3] (setting [8]). Besides, the “Expression of IL-6 upon stimulation of whole human blood” value in the data set on whole human blood [1] (setting [9]) was “capable of inducing expression of IL-6 at 10 μM”; in the data set on whole human blood [1] (setting [10]), “capable of inducing expression of IL-6 at 10 μM; also recorded: not capable of inducing expression of IL-6 in donor 1”. Further, the “Expression of IL-12p40 upon stimulation of whole human blood” value with whole human blood [2] (setting [9]) was “none of the small molecules Gardiquimod, MK087, MK088, and MK089 were capable of inducing expression of IL-12p40”; in the data set with whole human blood [2] (setting [10]) it was “not capable of inducing expression of IL-12p40”.
As to `CCOCc1nc2c(N)nc3ccccc3c2n1CCNC(=O)C(C)(C)N` [MK090, 2-amino-N-(2-(4-amino-2-(ethoxymethyl)-1H-imidazo[4,5-c]quinolin-1-yl)ethyl)-2-methylpropanamide], the “Expression of IL-6 upon stimulation of whole human blood” value in the data set on whole human blood [1] (setting [4]) was “induced expression of IL-6 at 10 μM in donor 2; also recorded: able to induce expression of IL-6 in both donors; also recorded: the most potent inducer of IL-6”. Moreover, the “Expression of IL-12p40 upon stimulation of whole human blood” value with whole human blood [2] (setting [4]) is listed as “induced expression of IL-12p40 at 10 μM in donor 2”.
`CCCCc1nc2c(N)nc3ccccc3c2n1Cc1ccc(CNC(C)=O)cc1` [MK132, N-(4-((4-amino-2-butyl-1H-imidazo[4,5-c]quinolin-1-yl)methyl)benzyl)acetamide] gave a pEC50 in the data set on RAW-Blue cells of 6.92.
`CCCCc1nc2c(N)nc3ccccc3c2n1Cc1ccc(CNC(=O)CC)cc1` [MK148, N-(4-((4-amino-2-butyl-1H-imidazo[4,5-c]quinolin-1-yl)methyl)benzyl)propionamide]: the pEC50 in the data set on RAW-Blue cells was 7.30. The “Potency in the RAW-Blue cell assay” value in the data set with RAW-Blue cells (compared with R848) is “greater potencies than R848”.
In the case of `CCOCc1nc2c(N)nc3ccccc3c2n1CCNC(=O)[C@@H](N)C(C)C` [MK089, (S)-2-amino-N-(2-(4-amino-2-(ethoxymethyl)-1H-imidazo[4,5-c]quinolin-1-yl)ethyl)-3-methylbutanamide], the “Remote loading efficiency 1 h (%)” value in data set [3] (setting [5]) is reported as 122%; in data set [3] (setting [7]), 100%. Also, the “Remote loading efficiency 3 h (%)” value is listed as 128% in data set [3] (setting [6]) and 104% in data set [3] (setting [8]). Also, the “Expression of IL-6 upon stimulation of whole human blood” value is on record as “induced expression of IL-6 at 10 μM in donor 2” with whole human blood [1] (setting [4]), “No induction of IL-6 expression” in the data set on whole human blood [1] (setting [9]) and “capable of inducing expression of IL-6 at 10 μM; also recorded: capable of inducing expression of IL-6 in both donors” in the data set with whole human blood [1] (setting [10]). In addition, the “Expression of IL-12p40 upon stimulation of whole human blood” value in the data set on whole human blood [2] (setting [9]) is “none of the small molecules Gardiquimod, MK087, MK088, and MK089 were capable of inducing expression of IL-12p40”; in the data set on whole human blood [2] (setting [10]), “capable of inducing expression of IL-12p40 in one donor at 10 μM”.
With `CCOCc1nc2c(N)nc3ccccc3c2n1CCNC(=O)[C@@H](N)CCSC` [MK093, (S)-2-amino-N-(2-(4-amino-2-(ethoxymethyl)-1H-imidazo[4,5-c]quinolin-1-yl)ethyl)-4-(methylthio)butanamide], the “Expression of IL-6 upon stimulation of whole human blood” value in the data set on whole human blood [1] (setting [4]) is “induced expression of IL-6 at 10 μM in donor 2”. In the data set on whole human blood [2] (setting [4]), the “Expression of IL-12p40 upon stimulation of whole human blood” value is reported as “induced expression of IL-12p40 at 10 μM in donor 2”.
For `CCCCc1nc2c(N)nc3ccccc3c2n1Cc1ccc(CNC(=O)[C@@H](N)Cc2ccc(O)cc2)cc1` [MK141, (S)-2-amino-N-(4-((4-amino-2-butyl-1H-imidazo[4,5-c]quinolin-1-yl)methyl)benzyl)-3-(4-hydroxyphenyl)propanamide], the “Remote loading efficiency 1 h (%)” value in data set [3] (formulation F3, drug/lipid ratio 0.10, 1 h, mean (SD), n = 2) is reported as 83.8 (3.0) %. Moreover, the “Remote loading efficiency 3 h (%)” value in data set [3] (formulation F3, drug/lipid ratio 0.10, 3 h, mean (SD), n = 2) is reported as 81.2 (2.1) %. Moreover, in the data set on RAW-Blue cells, the negative-log EC50 (pEC50) is 6.89.
With `CCOCc1nc2c(N)nc3ccccc3c2n1CCNC(=O)[C@H](C)N` [MK088, (S)-2-amino-N-(2-(4-amino-2-(ethoxymethyl)-1H-imidazo[4,5-c]quinolin-1-yl)ethyl)propanamide], the “Remote loading efficiency 1 h (%)” value in data set [3] (setting [5]) was found to be 110%; in data set [3] (setting [7]), 95%. Moreover, the “Remote loading efficiency 3 h (%)” value in data set [3] (setting [6]) amounted to 115%; in data set [3] (setting [8]), 95%. Moreover, the “Expression of IL-6 upon stimulation of whole human blood” value with whole human blood [1] (setting [4]) is given as “induced expression of IL-6 at 10 μM in donor 2”; with whole human blood [1] (setting [9]), “capable of inducing expression of IL-6 at 10 μM”; with whole human blood [1] (setting [10]) it was “capable of inducing expression of IL-6 at 10 μM; also recorded: not capable of inducing expression of IL-6 in donor 1”. The “Expression of IL-12p40 upon stimulation of whole human blood” value was “induced expression of IL-12p40 at 10 μM in donor 2; also recorded: the most potent inducer of IL-12p40” in the data set with whole human blood [2] (setting [4]); “none of the small molecules Gardiquimod, MK087, MK088, and MK089 were capable of inducing expression of IL-12p40” in the data set on whole human blood [2] (setting [9]); “capable of inducing expression of IL-12p40 in one donor at 10 μM” in the data set with whole human blood [2] (setting [10]).

The values are drawn from patent publication US20210213010A1, “TLR7/8 AGONISTS AND LIPOSOME COMPOSITIONS” (Torque Therapeutics, Inc., priority 2018, published 2021).
